Read-outs that look alike come from different tables or passages of the source.

In test [1] the test system is T1, horseradish peroxidase (HRP).
T1 construct: gene PRXC1A; commercial enzyme from Sigma-Aldrich, 250 purpurogallin units per mg
The test can be described thus: dye decolorization initial rates, fit to ping-pong bi-bi model with H2O2 inhibition (best fit). In kind it is biochemical. Conditions: read-out: Hydrogen peroxide inhibition.

Test [2] has the same test system. In words: dye decolorization initial rates, fit to ping-pong bi-bi model with dye inhibition. The format is biochemical. To be noted: substrate inhibition (dead-end complex). From the text:
dye decolorization initial rates, fit to ping-pong bi-bi model with dye inhibition on horseradish peroxidase (HRP)

`Cc1cc(C)c(Nc2cc(S(=O)(=O)O)c(N)c3c2C(=O)c2ccccc2C3=O)c(C)c1NC(=O)C(Br)=CBr` [AB 225, C.I. Acid Blue 225]: in test [1] (co-substrate H2O2 varied at dye 0.029 mM, pH 5.5, 24 °C, 0.04 IU/mL HRP, R2 0.9908), the Km stood at 152 µM. The compound further had a Dye inhibition in test [2] (H2O2 fixed at 0.1 mM, dye 0.015-0.051 mM, pH 5.5, 24 °C, 0.04 IU/mL HRP, R2 0.9602) of 0.0126 mM.
For the compound C.I. Acid Violet 109 [AV 109], the Km in test [1] (co-substrate H2O2 varied at dye 0.018 mM, pH 5.25, 24 °C, 0.15 IU/mL HRP, R2 0.9902) is 330 µM. In test [2] (H2O2 fixed at 0.06 mM, dye 0.012-0.043 mM, pH 5.25, 24 °C, 0.15 IU/mL HRP, R2 0.9225), this compound showed a Dye inhibition of 0.0080 mM.

The record behind these values is paper PMC4313523, “Decolorization of Anthraquinonic Dyes from Textile Effluent Using Horseradish Peroxidase: Optimization and Kinetic Study” (The Scientific World Journal, 2015).
